Experimental data from patent US20220117920A1, “N-Aryl Benzenesulfonamides as Protonophores for the Treatment of Cancers, Metabolic Diseases and Traumatic Brain Injury” (University of Kentucky Research Foundation, priority 2019, published 2022).

Legend:
[1] = Gross-toxicity assay in mice; type: in vivo; details: intraperitoneal injections up to 15 mg/kg for 5-6 weeks
Procedure: FIGS. 20A-D show graphs and images illustrating FH535 effect in vivo. (A) Mice body weight after FH535 treatment. C57BL/6 mice (n=5) were treated by intraperitoneal injection with 15 mg/Kg of FH535 or DMSO vehicle control every 4 days for 6 weeks. Mice were monitored before injections for signs of body weight loss, impaired mobility, labored breathing and body score based on the Ullman-Culleré MH, Foltz CJ method. (B-D) FH535 reduces tumor growth in vivo in a xenograft tumor model. Huh7 cell were injected subcutaneously on the right flank of athymic nude mice. FH535 (15 mg/Kg) or vehicle (DMSO) were administrated by intraperitoneal injection every other day when tumor size reached 100 mm^3. (B) Tumor growth was monitored every other day until day 10 of starting treatments when mice were euthanized according to the AVMA guidelines, *p<0.05 (n=5, each group); (C) Tumor weight of excised tumors after 10 day treatment with FH535 reduced the tumor weight in 42±8% compared to vehicle treatment, **p<0.001 (n=4, each group). (D) H&E and ki67 stainings from one representative tumor of each group treatment. Pictures were taken at 400× magnification.
To validate further the in vivo anti-tumor effect of FH535, we performed a gross-toxicity assay in mice with FH535 doses ranging from 0 to 30 mg/kg. […] Next, we evaluated the in vivo anti-tumor activity of FH535 in a Huh7 tumor xenograft model. […]

DLD-1 cells = assay: Seahorse uncoupling assay (OCR) in DLD-1 cells; type: cell-based, human; details: testing compound 3 μM
Procedure: (§3) Seahorse assay. Approximately 3×10^4 cells were seeded in XF96 Cell Culture microplate (80 μL of 3.75×10^5 cells/mL) for all experiments. On the next day, cell culture media were replaced with either Seahorse XF modified media with 25 mM glucose and 1 mM pyruvate. After media exchange, cells were treated with 1 μM of oligomycin A, 1.0 μM FCCP and mixture of 1.0 μM of rotenone and 1.0 μM of antimycin A in standard mitochondrial stress test conditions. To determine the uncoupler effects, FCCP was replaced with an equal volume of DMSO, or a compound to be tested in DMSO solution. ATP production rate was analyzed using Agilent Seahorse XF Real-Time ATP Rate Assay.

p62 = assay: RT-qPCR of p62 mRNA in Huh7 cells; type: cell-based, human; details: Huh7, absence of CQ
Procedure: (§1) Total RNA was extracted with miRNeasy mini kit (Qiagen, Germany), and the corresponding cDNA was produced using iScript cDNA synthesis kit (BioRad, USA) from 1 μg of total RNA. Real time quantitative PCR (RT-qPCR) was performed using SsoAdvanced Universal SYBR Green supermix (BioRad, USA) with specific primers: p62 (SQSTM1: 5′-[…]-3′ (SEQ ID NO: 1) and 5′-[…]-3′ (SEQ ID NO: 2)); c-MYC (cMYC: 5′-[…]-3′ (SEQ ID NO: 3) and 5′-[…]-3′ (SEQ ID NO: 4)), Survivin (BIRC5, 5′-[…]-3′ (SEQ ID NO: 5) and 5′-[…]-3′ (SEQ ID NO: 6)), AXIN 2 (AXIN2: 5′-[…]-3′ (SEQ ID NO: 7) and 5′-[…]-3′ (SEQ ID NO: 8)), Cyclin D1 (5′-CCND1: […]-3′ (SEQ ID NO: 9) and 5′-[…]-3′ (SEQ ID NO: 10)), and b2-microglobulin (B2M: 5′-[…]-3′ (SEQ ID NO: 11) and 5′-[…]-3′ (SEQ ID NO: 12)). Transcript levels were normalized to β-actin or […] level as indicated using the ΔΔCt method.

[2] = system: mitochondrial ATP production; assay: Agilent Seahorse XF Real-Time ATP Rate Assay; type: cell-based, human; details: 3 μM
Procedure: as §3

Huh7 cells [3] = assay: Seahorse mitochondrial stress test (OCR) in Huh7 cells; type: cell-based, human; details: Huh7, 24 h
Procedure: Oxygen Consumption Rates (OCR) were measured on an XF-96 Extracellular Flux Analyzer (Seahorse Bioscience) using the protocol and conditions optimized for HCC cells as previously described by our group. Briefly, the experiments were performed by seeding 10,000 and 20,000 Huh7 cells per well in XFe 96 well-plates 36 h before the experiment. Cells were treated for 24 h with FH535, FH535-N or vehicle control. In OCR experiments the media was supplemented with 25 mM Glucose and 1 mM Pyruvate just before the assay. After minimal incubation time (˜20-30 min in non-CO2 37° C. incubator) mitochondrial stress test was initiated. […] All reagents used in the Seahorse experiments were purchased from Sigma-Aldrich. Analyses of data were performed with Wave 2.2 software (Seahorse Bioscience), Excel (Microsoft Office 2013) and Prism 7.0 (GraphPad Software).

AMPK = assay: Western blot of AMPK (T172) and ACC (S79) phosphorylation in CRC cells; type: cell-based, human
Procedure: Biochemistry. Western blotting: Cells were lysed in the appropriate volume of lysis buffer: 50 mM HEPES, 100 mM NaCl, 2 mM EDTA, 1% (v/v) glycerol, 50 mM NaF, 1 mM Na3VO4, 1% (v/v) Triton X-100, with protease inhibitors. The following antibodies were used: AMPK (Cell Signaling, 2532, Cell Signaling Technologies, Danver, Mass., USA), pAMPK (Cell Signaling, 2535), ACC (Cell Signaling, 3676), pACC (Cell Signaling, 11818), Actin (Sigma, A1978). Antibodies for Axin 2, c-Myc and Cyclin D1 have been described previously. ATP analysis: Cells growing in 12-well plates were treated with DMSO or inhibitors in DMSO solution and lysed by adding 1 mL boiling doubly distilled water. Supernatants were analyzed by luminescence using ATP Determination Kit (Invitrogen, A22066; Thermo Fisher Scientific, Waltham, Mass., USA).

[4] = system: Wnt/β-catenin target genes; assay: Expression of downstream β-catenin targets in Huh7 cells (western blot, RT-qPCR); type: cell-based, human; details: Huh7, 36 h
Procedure: (§2) Primary antibodies are described in Table 1.
as §1

Huh7 cells [5] = assay: Cyto-ID autophagy detection assay in Huh7 cells; type: cell-based, human; details: Huh7, 40 h, ±50 μM CQ
Procedure: Autophagy responses were monitored with the Cyto-ID autophagy detection reagent 2.0 (Enzo Life Sciences, USA) according to the manufacturer's instructions. Huh7 and PLC/PRF/5 cells were seeded in 12-well plates and treated the following day with drugs or DMSO vehicle control at the indicated concentrations. CQ was added to the corresponding wells to a final concentration of 50 μM 8 h prior harvesting. After 40 h of drug treatment, cells were collected and assessed for viability with Zombie Violet dye solution (BioLegend, USA) followed by Cyto-ID autophagy detection reagent staining. Flow cytometry analyses were performed in a BD LSRII at the Flow Cytometry and Cell Sorting Shared Resource Facility of the University of Kentucky Markey Cancer Center and data were analyzed with the FlowJo Software version 7.6.5 (Tree Star, USA). The autophagic flux was quantified by subtracting the Cyto-ID MFI value of the sample without CQ from the Cyto-ID MFI value of the sample with CQ for each condition according to the formula: […]

Huh7 cells [6] = assay: Western blot of autophagy markers LC3II and p62 in Huh7 cells; type: cell-based, human
Text: as §2

## Cc1cc([N+](=O)[O-])ccc1NS(=O)(=O)c1cc(Cl)ccc1Cl [FH535, 2,5-dichloro-N-(2-methyl-4-nitrophenyl)benzenesulfonamide]
[1]
  signs of body distress or toxicity (weight loss, ambulatory ability, respiration, dehydration): did not induce major signs of body distress or toxicity
DLD-1 cells
  uncoupling: OCR inhibited by oligomycin: increased OCR inhibited by oligomycin
p62
  p62 mRNA levels: increase of p62 mRNA levels
[2]
  rate of ATP production in mitochondria: decreased the rates of ATP production in mitochondria
Huh7 cells [3]
  Proton Leak: enhanced Proton Leak
AMPK
  time to AMPK activation after treatment: ≤ 15 min
AMPK; 3 μM
  ACC (S79 phosphorylation): induced AMPK phosphorylation and ACC phosphorylation
  AMPK activity (T172 phosphorylation): activated AMPK
[4]
  expression of downstream Wnt/β-catenin target genes: reduced expression of endogenous downstream β-catenin target genes
Huh7 cells [5]
  autophagic flux (Cyto-ID): reduced accumulation of autophagic vesicles
Huh7 cells [6]; Huh7, 50 μM CQ 8 h
  accumulation of LC3II in the presence of CQ (autophagic flux, ΔLC3II): reduced accumulation of LC3II in the presence of CQ
Huh7 cells [6]; Huh7, 40 h
  LC3II protein levels: increased the lipid-bound expression of LC3II levels in a dose-dependent manner
  p62 protein levels: increased
